The Kd is the free concentration of one partner at which half of the binding sites on the other are occupied at equilibrium, for simple one-to-one binding.

Among the data in patent publication US20240109865A1, “INDAZOLE COMPOUNDS AS KINASE INHIBITORS” (TYRA BIOSCIENCES, INC., priority 2020, published 2024) are Kd values, retold here.

What all share (assay): Kinase assay, binding constants (Kd), kinase-tagged T7 phage, qPCR
In general terms: Real-time PCR tracks product formation cycle by cycle.

One test has as its target FGFR1 (Homo sapiens (Human), UniProt P11362). A digest of the protocol: (§1)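 Competition binding: T7 phage-tagged kinase + biotin-ligand beads + compound (11 pts, 3-fold, 0.9% DMSO). Elution 30 min RT with free ligand; qPCR quantitation. Kd via Hill fit, slope −1.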
A further test deals with FGFR3 (V555M) (Homo sapiens (Human), UniProt P22607, V555M). The following applies: V555M mutant. A digest of the protocol:
as §1

Another test deals with FGFR2 (Homo sapiens (Human), UniProt P21802). An outline of the steps: as §1
The target in another test is FGFR4 (Homo sapiens (Human), UniProt P22455). An outline of the steps:
as §1

A further test deals with FGFR3 (Homo sapiens (Human), UniProt P22607). A digest of the protocol: as §1
FGFR3, sequence (P22607 23-806): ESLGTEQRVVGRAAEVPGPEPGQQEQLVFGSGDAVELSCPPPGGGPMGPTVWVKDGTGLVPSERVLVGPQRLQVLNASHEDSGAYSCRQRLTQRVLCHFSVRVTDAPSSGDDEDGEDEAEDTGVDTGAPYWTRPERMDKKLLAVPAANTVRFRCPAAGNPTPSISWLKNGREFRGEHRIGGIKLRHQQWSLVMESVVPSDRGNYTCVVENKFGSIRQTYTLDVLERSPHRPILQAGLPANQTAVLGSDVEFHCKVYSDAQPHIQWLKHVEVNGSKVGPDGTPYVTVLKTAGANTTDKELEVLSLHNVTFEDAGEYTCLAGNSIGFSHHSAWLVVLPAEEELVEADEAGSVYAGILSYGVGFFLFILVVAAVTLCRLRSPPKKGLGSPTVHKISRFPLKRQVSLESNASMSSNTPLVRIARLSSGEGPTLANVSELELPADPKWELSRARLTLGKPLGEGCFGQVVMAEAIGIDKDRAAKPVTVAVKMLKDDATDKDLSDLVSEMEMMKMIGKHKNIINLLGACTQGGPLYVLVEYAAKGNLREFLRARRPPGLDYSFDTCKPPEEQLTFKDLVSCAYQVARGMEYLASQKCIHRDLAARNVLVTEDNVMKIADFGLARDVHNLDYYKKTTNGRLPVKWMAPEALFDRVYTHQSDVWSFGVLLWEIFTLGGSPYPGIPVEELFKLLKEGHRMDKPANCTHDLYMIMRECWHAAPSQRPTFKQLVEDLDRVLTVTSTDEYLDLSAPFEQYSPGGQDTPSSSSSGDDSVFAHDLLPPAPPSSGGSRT

FGFR3 (V555M), sequence (P22607 23-806 V555M): as the sequence (P22607 23-806) above, with V533M counted along it
FGFR2, sequence (P21802 22-821): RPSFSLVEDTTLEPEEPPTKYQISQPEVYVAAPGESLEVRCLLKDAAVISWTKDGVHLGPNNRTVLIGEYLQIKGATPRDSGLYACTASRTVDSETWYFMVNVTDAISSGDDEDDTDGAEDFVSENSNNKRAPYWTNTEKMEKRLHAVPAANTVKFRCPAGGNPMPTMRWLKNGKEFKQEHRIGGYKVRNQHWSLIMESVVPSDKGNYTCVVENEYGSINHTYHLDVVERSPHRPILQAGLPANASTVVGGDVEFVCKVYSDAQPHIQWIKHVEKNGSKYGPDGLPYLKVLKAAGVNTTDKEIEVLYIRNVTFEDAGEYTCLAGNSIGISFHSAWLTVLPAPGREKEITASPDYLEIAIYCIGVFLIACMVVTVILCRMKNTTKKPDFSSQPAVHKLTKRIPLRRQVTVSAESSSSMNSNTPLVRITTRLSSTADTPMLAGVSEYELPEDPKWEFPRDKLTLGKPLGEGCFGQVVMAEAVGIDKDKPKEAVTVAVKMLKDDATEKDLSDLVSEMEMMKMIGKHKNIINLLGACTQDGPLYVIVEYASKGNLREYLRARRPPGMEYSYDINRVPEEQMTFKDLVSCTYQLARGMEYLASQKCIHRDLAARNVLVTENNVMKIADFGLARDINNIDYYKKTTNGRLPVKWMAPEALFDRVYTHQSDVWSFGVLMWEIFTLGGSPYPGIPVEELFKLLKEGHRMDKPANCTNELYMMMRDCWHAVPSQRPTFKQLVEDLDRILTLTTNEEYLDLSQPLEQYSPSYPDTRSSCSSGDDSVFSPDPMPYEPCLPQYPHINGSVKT
FGFR4, sequence (P22455 22-802): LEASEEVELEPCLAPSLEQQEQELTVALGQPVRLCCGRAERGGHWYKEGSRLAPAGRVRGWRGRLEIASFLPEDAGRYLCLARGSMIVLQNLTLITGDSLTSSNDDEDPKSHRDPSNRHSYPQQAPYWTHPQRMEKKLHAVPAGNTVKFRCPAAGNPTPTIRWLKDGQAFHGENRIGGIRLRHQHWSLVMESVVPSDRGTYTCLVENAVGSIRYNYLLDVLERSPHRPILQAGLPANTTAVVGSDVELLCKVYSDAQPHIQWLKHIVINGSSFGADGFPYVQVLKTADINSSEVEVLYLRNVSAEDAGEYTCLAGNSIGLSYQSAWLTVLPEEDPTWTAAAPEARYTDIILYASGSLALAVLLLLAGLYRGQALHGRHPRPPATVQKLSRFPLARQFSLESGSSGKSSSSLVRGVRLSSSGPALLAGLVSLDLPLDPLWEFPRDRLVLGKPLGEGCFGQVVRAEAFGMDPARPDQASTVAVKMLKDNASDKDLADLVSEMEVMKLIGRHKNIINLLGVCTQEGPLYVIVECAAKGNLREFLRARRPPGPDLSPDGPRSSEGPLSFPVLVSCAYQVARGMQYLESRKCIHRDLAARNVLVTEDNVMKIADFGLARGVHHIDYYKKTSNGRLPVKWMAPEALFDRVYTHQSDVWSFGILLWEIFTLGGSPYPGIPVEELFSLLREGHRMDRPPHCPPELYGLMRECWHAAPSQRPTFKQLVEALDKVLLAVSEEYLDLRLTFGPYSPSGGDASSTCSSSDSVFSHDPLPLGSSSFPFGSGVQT
FGFR1, sequence (P11362 22-822): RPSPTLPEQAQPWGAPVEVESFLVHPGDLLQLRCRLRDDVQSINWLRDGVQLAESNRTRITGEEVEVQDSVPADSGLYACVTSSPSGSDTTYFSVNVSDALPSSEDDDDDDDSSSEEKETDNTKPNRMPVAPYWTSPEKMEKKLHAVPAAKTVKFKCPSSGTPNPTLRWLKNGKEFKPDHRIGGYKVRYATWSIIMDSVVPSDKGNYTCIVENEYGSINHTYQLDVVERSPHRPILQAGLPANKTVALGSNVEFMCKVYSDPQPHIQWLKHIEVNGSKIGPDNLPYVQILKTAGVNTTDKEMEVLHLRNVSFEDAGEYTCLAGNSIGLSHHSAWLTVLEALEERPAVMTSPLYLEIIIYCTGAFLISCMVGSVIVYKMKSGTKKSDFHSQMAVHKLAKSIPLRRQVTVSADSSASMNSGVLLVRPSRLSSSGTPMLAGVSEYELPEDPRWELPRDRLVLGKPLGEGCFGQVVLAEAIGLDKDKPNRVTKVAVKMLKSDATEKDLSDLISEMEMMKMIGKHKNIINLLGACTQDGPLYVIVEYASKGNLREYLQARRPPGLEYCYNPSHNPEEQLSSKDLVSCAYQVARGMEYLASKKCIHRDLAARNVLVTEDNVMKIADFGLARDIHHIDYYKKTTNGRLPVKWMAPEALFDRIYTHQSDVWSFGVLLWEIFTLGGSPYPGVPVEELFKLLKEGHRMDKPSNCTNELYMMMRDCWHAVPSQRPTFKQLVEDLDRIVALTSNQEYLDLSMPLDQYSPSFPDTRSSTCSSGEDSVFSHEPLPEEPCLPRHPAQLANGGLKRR

`C[C@@H](Oc1ccc2[nH]nc(-c3cnc(N4CC(CC(F)(F)F)C4)c(C#N)c3)c2c1)c1c(Cl)cncc1Cl` [Example 296, 5-[5-[(1R)-1-(3,5-dichloro-4-pyridyl)ethoxy]-1H-indazol-3-yl]-2-[3-(2,2,2-trifluoroethyl)azetidin-1-yl]pyridine-3-carbonitrile]: the Kd is greater than 300 nM on FGFR1; 100 to 300 nM at FGFR3 (V555M); greater than 300 nM at FGFR2; 20 to 100 nM at FGFR4; greater than 300 nM at FGFR3.
On to `C[C@@H](Oc1ccc2[nH]nc(-c3cnc(N4CC[C@@H](O)C4)c(C#N)c3)c2c1)c1c(Cl)cncc1Cl` [Example 297, 5-[5-[(1R)-1-(3,5-dichloro-4-pyridyl)ethoxy]-1H-indazol-3-yl]-2-[(3R)-3-hydroxypyrrolidin-1-yl]pyridine-3-carbonitrile], for which the Kd is 20 to 100 nM at FGFR1; 1 to 20 nM at FGFR3 (V555M); 100 to 300 nM at FGFR2; 1 to 20 nM at FGFR4; 1 to 20 nM at FGFR3.
For the compound `C[C@@H](Oc1ccc2[nH]nc(-c3cnc(N4CCC(O)CC4)c(C#N)c3)c2c1)c1c(Cl)cncc1Cl` [Example 298, 5-[5-[(1R)-1-(3,5-dichloro-4-pyridyl)ethoxy]-1H-indazol-3-yl]-2-(4-hydroxy-1-piperidyl)pyridine-3-carbonitrile], the Kd on FGFR1 is 20 to 100 nM; on FGFR3 (V555M), 1 to 20 nM; on FGFR2, 20 to 100 nM; on FGFR4, 1 to 20 nM; on FGFR3, 1 to 20 nM.
Turning to `Cc1cnnc(C)c1[C@@H](C)Oc1ccc2[nH]nc(-c3cnc(N4CC5CC(C4)N5)c(C#N)c3)c2c1` [Example 299, 2-(3,6-diazabicyclo[3.1.1]heptan-3-yl)-5-(5-((R)-1-(3,5-dimethylpyridazin-4-yl)ethoxy)-1H-indazol-3-yl)nicotinonitrile], the Kd was in the range of 20 to 100 nM at FGFR1; 1 to 20 nM on FGFR3 (V555M); 20 to 100 nM on FGFR2; 1 to 20 nM on FGFR4; 1 to 20 nM on FGFR3.
Consider `COc1cc(-c2n[nH]c3ccc(O[C@H](C)c4c(C)cnnc4C)cc23)cnc1N1CC2CC(C1)N2` [Example 300, 3-(5-(5-((R)-1-(3,5-dimethylpyridazin-4-yl)ethoxy)-1H-indazol-3-yl)-3-methoxypyridin-2-yl)-3,6-diazabicyclo[3.1.1]heptane], for which the Kd at FGFR1 lay in the range of 100 to 300 nM; on FGFR3 (V555M), 20 to 100 nM; at FGFR2, 100 to 300 nM; at FGFR4, 20 to 100 nM; at FGFR3 it was 20 to 100 nM.
With `Cc1cnnc(C)c1[C@@H](C)Oc1ccc2[nH]nc(-c3cnc(N4CC[C@H](C(C)(C)O)C4)c(C#N)c3)c2c1` [Example 301, 5-(5-((R)-1-(3,5-dimethylpyridazin-4-yl)ethoxy)-1H-indazol-3-yl)-2-((S)-3-(2-hydroxypropan-2-yl)pyrrolidin-1-yl)nicotinonitrile], the Kd at FGFR1 lay within 100 to 300 nM; at FGFR3 (V555M) it was 1 to 20 nM; on FGFR2, 100 to 300 nM; on FGFR4, 1 to 20 nM; at FGFR3 it was 20 to 100 nM.
As for `C[C@@H](Oc1ccc2[nH]nc(-c3cnc(N4CC(O)C4)c(C#N)c3)c2c1)c1c(Cl)cncc1Cl` [Example 302, 5-[5-[(1R)-1-(3,5-dichloro-4-pyridyl)ethoxy]-1H-indazol-3-yl]-2-(3-hydroxyazetidin-1-yl)pyridine-3-carbonitrile], the Kd on FGFR1 lay within 100 to 300 nM; at FGFR3 (V555M), 1 to 20 nM; on FGFR2, 100 to 300 nM; at FGFR4 it was 1 to 20 nM; at FGFR3, 20 to 100 nM.
Regarding `C[C@@H](Oc1ccc2[nH]nc(-c3cnc(N4CCC(C(C)(C)O)CC4)c(C#N)c3)c2c1)c1c(Cl)cncc1Cl` [Example 303, 5-[5-[(1R)-1-(3,5-dichloro-4-pyridyl)ethoxy]-1H-indazol-3-yl]-2-[4-(1-hydroxy-1-methyl-ethyl)-1-piperidyl]pyridine-3-carbonitrile], the Kd was 20 to 100 nM at FGFR1; 1 to 20 nM on FGFR3 (V555M); 20 to 100 nM at FGFR2; 1 to 20 nM at FGFR4; 1 to 20 nM at FGFR3.
As to `COc1cc(-c2n[nH]c3ccc(O[C@H](C)c4c(C)cnnc4C)cc23)cnc1N1CCC1` [Example 304, (R)-3-(6-(azetidin-1-yl)-5-methoxypyridin-3-yl)-5-(1-(3,5-dimethylpyridazin-4-yl)ethoxy)-1H-indazole], the Kd was greater than 300 nM at FGFR1; 20 to 100 nM on FGFR3 (V555M); greater than 300 nM at FGFR2; 1 to 20 nM on FGFR4; 100 to 300 nM at FGFR3.
As for `COc1cc(-c2n[nH]c3ccc(O[C@H](C)c4c(C)cnnc4C)cc23)cnc1N1CCCC1` [Example 305, (R)-5-(1-(3,5-dimethylpyridazin-4-yl)ethoxy)-3-(5-methoxy-6-(pyrrolidin-1-yl)pyridin-3-yl)-1H-indazole], the Kd at FGFR1 was greater than 300 nM; at FGFR3 (V555M) it was 100 to 300 nM; at FGFR2, greater than 300 nM; at FGFR4, 20 to 100 nM; at FGFR3 it was greater than 300 nM.
For the compound `Cc1cnnc(C)c1[C@@H](C)Oc1ccc2[nH]nc(-c3cnc(N4CC[C@H](O)C4)c(C#N)c3)c2c1` [Example 306, 5-(5-((R)-1-(3,5-dimethylpyridazin-4-yl)ethoxy)-1H-indazol-3-yl)-2-((S)-3-hydroxypyrrolidin-1-yl)nicotinonitrile], the Kd lay within 100 to 300 nM at FGFR1; 1 to 20 nM at FGFR3 (V555M); 20 to 100 nM at FGFR2; 1 to 20 nM on FGFR4; 20 to 100 nM on FGFR3.
Regarding `Cc1cnnc(C)c1[C@@H](C)Oc1ccc2[nH]nc(-c3cnc(N4CC[C@@H](C(C)(C)O)C4)c(C#N)c3)c2c1` [Example 307, 5-(5-((R)-1-(3,5-dimethylpyridazin-4-yl)ethoxy)-1H-indazol-3-yl)-2-((R)-3-(2-hydroxypropan-2-yl)pyrrolidin-1-yl)nicotinonitrile], the Kd on FGFR1 was in the range of 100 to 300 nM; at FGFR3 (V555M), 1 to 20 nM; on FGFR2, 20 to 100 nM; at FGFR4, 1 to 20 nM; at FGFR3, 20 to 100 nM.
`Cc1ncc(Cl)c([C@@H](C)Oc2ccc3[nH]nc(-c4cnc(N5CC(O)C5)c(C#N)c4)c3c2)c1Cl` [Example 308, 5-[5-[(1R)-1-(3,5-dichloro-2-methyl-4-pyridyl)ethoxy]-1H-indazol-3-yl]-2-(3-hydroxyazetidin-1-yl)pyridine-3-carbonitrile]: the Kd at FGFR1 was greater than 300 nM; on FGFR3 (V555M) it was 20 to 100 nM; on FGFR2 it was greater than 300 nM; on FGFR4 it was 1 to 20 nM; at FGFR3, 100 to 300 nM.
As to `C[C@@H](Oc1ccc2[nH]nc(-c3cnc(N4CCC4)c(C#N)c3)c2c1)c1c(Cl)cncc1Cl` [Example 309, 2-(azetidin-1-yl)-5-[5-[(1R)-1-(3,5-dichloro-4-pyridyl)ethoxy]-1H-indazol-3-yl]pyridine-3-carbonitrile], the Kd at FGFR1 was greater than 300 nM; on FGFR3 (V555M), 20 to 100 nM; on FGFR2, greater than 300 nM; at FGFR4, 1 to 20 nM; at FGFR3, 100 to 300 nM.
For the compound `COc1cc2[nH]nc(-c3ccc(N4CCC4)nc3)c2cc1O[C@H](C)c1c(C)cnnc1C` [Example 310, (R)-3-(6-(azetidin-1-yl)pyridin-3-yl)-5-(1-(3,5-dimethylpyridazin-4-yl)ethoxy)-6-methoxy-1H-indazole], the Kd on FGFR1, at FGFR3 (V555M), at FGFR2, on FGFR4 and at FGFR3 was 1 to 20 nM in each case.
`COc1cc2[nH]nc(-c3cnc(N4CC[C@H](O)C4)c(C#N)c3)c2cc1O[C@H](C)c1c(C)cnnc1C` [Example 311, 5-(5-((R)-1-(3,5-dimethylpyridazin-4-yl)ethoxy)-6-methoxy-1H-indazol-3-yl)-2-((S)-3-hydroxypyrrolidin-1-yl)nicotinonitrile]: the Kd at FGFR1 fell in the range of 20 to 100 nM; at FGFR3 (V555M) it was 1 to 20 nM; at FGFR2, 20 to 100 nM; on FGFR4, 1 to 20 nM; on FGFR3, 20 to 100 nM.
`Cc1cnnc(C)c1[C@@H](C)Oc1ccc2[nH]nc(-c3cnc(N4CC5CC(C4)N5CC(C)(C)O)c(C#N)c3)c2c1` [Example 312, 5-(5-((R)-1-(3,5-dimethylpyridazin-4-yl)ethoxy)-1H-indazol-3-yl)-2-(6-(2-hydroxy-2-methylpropyl)-3,6-diazabicyclo[3.1.1]heptan-3-yl)nicotinonitrile]: the Kd at FGFR1, on FGFR3 (V555M), on FGFR2, at FGFR4 and at FGFR3 was 1 to 20 nM each time.
Regarding `Cc1cnnc(C)c1[C@@H](C)Oc1ccc2[nH]nc(-c3cnc(N4CC[C@@H](O)C4)c(C#N)c3)c2c1` [Example 313, 5-(5-((R)-1-(3,5-dimethylpyridazin-4-yl)ethoxy)-1H-indazol-3-yl)-2-((R)-3-hydroxypyrrolidin-1-yl)nicotinonitrile], the Kd at FGFR1 was in the range of 100 to 300 nM; on FGFR3 (V555M) it was 1 to 20 nM; on FGFR2 it was 20 to 100 nM; at FGFR4, 1 to 20 nM; at FGFR3 it was 20 to 100 nM.
Consider `COc1cc2[nH]nc(-c3ccc(N4CC5CC(C4)N5)nc3)c2cc1O[C@H](C)c1c(C)cnnc1C` [Example 314, 3-(5-(5-((R)-1-(3,5-dimethylpyridazin-4-yl)ethoxy)-6-methoxy-1H-indazol-3-yl)pyridin-2-yl)-3,6-diazabicyclo[3.1.1]heptane], for which the Kd at FGFR1, at FGFR3 (V555M), on FGFR2, at FGFR4 and on FGFR3 was 1 to 20 nM throughout.
